In paper PMC4666306 (European journal of medicinal chemistry, 2015):

Key:
[1] = system: BaF3 cells transformed with FLT3-ITD containing activation loop (D835V) mutation; conditions: 48 h post treatment
[2] = system: BaF3 cells transformed with FLT3-ITD containing gatekeeper (F691L) mutation; conditions: 48 h post treatment

SMILES: Fc1ccc(-c2cnc3cc(-c4ccco4)ccn23)cc1 [Compound 21, 3-(4-Fluorophenyl)-7-(furan-2-yl)imidazo[1,2-a]pyridine]
- GI50 +ITD D835V [1]: ineffective
- GI50 +ITD F691L [2]: ineffective
